Results as given in patent US20150031760A1, “PHARMACEUTICAL COMPOSITION FOR PREVENTING OR TREATING NERVOUS SYSTEM DISORDERS COMPRISING SULFURETIN OR PHARMACEUTICALLY ACCEPTABLE SALT THEREOF” (Research and Business Foundation SUNGKYUNKWAN UNIVERSITY, priority 2010, published 2015).
Read-outs that look alike come from different tables or passages of the source.

Experiments:
SH-SY5Y cells [1] = test: Inhibition of mitochondrial membrane potential (MMP) damage (rhodamine-123); type: cell-based, human; conditions: hydrogen peroxide-induced damage, 30 minutes pretreatment
Method: (§1) The incubator was maintained at a temperature of 37° C., and a mixed gas of 95% air and 5% CO2 was continuously supplied thereto to provide suitable conditions for cell culture. The cells were cultured in a 6-well plate or a 96-well plate at each of densities of 1×10^6 and 2×10^4 cells/well 24 hours before the experiment. […] Sulfuretin was used in ethanol and used at a final concentration of 0.1% or less.
In order to measure the inhibition of MMP damage, cells were labeled with rhodamine-123 fluorescence, and quantitative analysis was performed using a fluorescence meter. Specifically, the 6-well plate in which the cells have been cultured was pretreated with sulfuretin for 30 minutes and then reacted with hydrogen peroxide for 30 minutes to induce MMP damage. Then, 10 μl of 10 μM rhodamine-123 was added to each well of the plate and allowed to react for 30 minutes. Herein, rhodamine-123 in the incubator was covered with a silver foil such that it would not be exposed to light. The cells that reacted with the rhodamine-123 fluorescent substance were detached with cold PBS and centrifuged at 400 g for 3 minutes. The centrifugation process was repeated twice to wash the fluorescent substance. The washed cells were stirred briefly with 0.5 ml of PBS, and 100 μl was dispensed into each well of a fresh 96-well plate. The fluorescence of the cells was measured at an excitation wavelength of 480 nm and an emission wavelength of 530 nm using a fluorescence meter (Perkinelmer, USA).
The measured fluorescence was substituted into the following equation to calculate ΔΨm:
ΔΨm(%)=[(O.D. of control−O.D. of test group)/O.D. of control]×100

SH-SY5Y cells [2] = test: LDH secretion (cytotoxicity) test; type: cell-based, human
Method: as §1
To measure LDH secretion (cytotoxicity), an LDH cytotoxicity assay kit was used. 50 μl of the medium was taken from each well of the 96-well plate (in which the cells have been cultured) and dispensed into each well of a fresh 96-well plate, and 50 μl of a reaction reagent was added to each well, after which the plate was shielded from light. The plate was incubated in an incubator for 30 minutes, and the UV absorbance at 490 nm was measured using a microplate reader (Molecular device, USA).
The measured absorbance was substituted into the following equation to calculate LDH secretion:
LDH secretion (%)=(LDH secretion O.D. in medium/total LDH secretion O.D.)×100

SH-SY5Y cells [3] = test: MTT (cell viability) test, induced cell death in SH-SY5Y cells; conditions: Homo sapiens, SH-SY5Y; for viability at 0.1 µg/mL: sulfuretin 0.1 μg/ml; for viability at 0.5 µg/mL: sulfuretin 0.5 μg/ml; for viability at 1 µg/mL: sulfuretin 1 μg/ml; for viability at 5 µg/mL: sulfuretin 5 μg/ml
Method: as §1
To measure cell viability, an MTT reduction assay was used. An MTT solution was added to each well of the 96-well plate (in which the cells have been cultured) to a final concentration of 0.5 mg/ml. The plate was incubated in an incubator for 2 hours, and the medium and the MIT solution were removed, after which DMSO was added thereto and stirred. When DMSO was completely dissolved, the UV absorbance at 540 nm was measured using a microplate reader (Molecular device, USA).
The measured absorbance was substituted into the following equation to calculate cell viability:
Cell viability (%)=[(O.D. of control−O.D. of test group)/O.D. of control]×100

phospho-p38 = test: Western blot, phospho-p38 expression; type: cell-based, human; conditions: SH-SY5Y cells
Method: as §1
(§2) In order to identify the effect of sulfuretin on the expression of proteins related to dementia, Alzheimer's disease, Parkinson's disease and strokes, a Western blot test was carried out.
(§3) After 24 hours, the supernatant of each well was collected and centrifuged at 400 g for 3 minutes, and the cells were washed with cold PBS and lysed with 100 μl of T-PER lysis buffer (Thermo, USA) for 30 minutes. The lysates were centrifuged at 10000 g at 4° C. for 15 minutes, and the supernatants were stored at […] until use as test samples. Proteins were quantitatively analyzed using a BCA assay kit (Thermo, USA) and separated within 8.5-12% SDS gel and then transferred to PVDF membranes. To examine the expression of the proteins, the development of fluorescence was analyzed by enhanced chemiluminescence (ECL). Specifically, the membrane was blocked with 5% skimmed non-fat milk for 1 hour and labeled with the primary antibodies, PARP, caspase-3, phospho-p38, phospho-JNK and β-actin at 4° C. overnight. Then, the membrane was washed three times with Tris-tween buffered saline (TTBS), and then labeled with horseradish peroxidase (HRP)-conjugated anti-rabbit and anti-mouse secondary antibodies at room temperature for 1 hour. Then, the membrane was washed five times with TTBS for 10 minutes. The washed film was developed by ECL using x-ray films, and concentrations were quantitatively analyzed using quantitative analysis program (Fujifilm, Japan).

phospho-JNK = test: Western blot, phospho-JNK expression; type: cell-based, human; conditions: SH-SY5Y cells
Method: as §1, §2, §3

PC12 cells = test: MTT (cell viability) test, corticosterone-induced cell death in PC12 cells; type: cell-based; conditions: Rattus norvegicus
Method: For the experiment shown in FIG. 3, PC12 cells were cultured in DMEM medium (Hyclone, Thermo, USA) containing 10% FBS, 5% horse serum and antibiotics (Gibco-BRL, USA). […] The concentration of corticosterone was determined to be 400 μM after evaluation of cell viability.

[4] = read-out: cell viability, 6-hydroxydopamine-induced cell death
[5] = read-out: cell viability, beta-amyloid-induced cell death
[6] = read-out: cell viability, hydrogen peroxide-induced cell death
[7] = hydrogen peroxide + sulfuretin 0.1 μg/ml
[8] = hydrogen peroxide + sulfuretin 0.5 μg/ml
[9] = hydrogen peroxide + sulfuretin 1 μg/ml

With O=C1/C(=C/c2ccc(O)c(O)c2)Oc2cc(O)ccc21 [sulfuretin] the “MMP (ΔΨm)” value (SH-SY5Y cells [1]; sulfuretin 0.1 μg/ml) was ≥ 56%, the “MMP (ΔΨm)” value (SH-SY5Y cells [1]; sulfuretin 0.5 μg/ml) was ≥ 62% and the “MMP (ΔΨm)” value (SH-SY5Y cells [1]; sulfuretin 1 μg/ml) was ≥ 91%. For the same compound, the “MMP (ΔΨm)” value (SH-SY5Y cells [1]; sulfuretin 5 μg/ml) was ≥ 98%, the LDH secretion (SH-SY5Y cells [2]; beta-amyloid-induced, sulfuretin 0.1 μg/ml) was ≤ 12% and the LDH secretion (SH-SY5Y cells [2]; beta-amyloid-induced, sulfuretin 0.5 μg/ml) was ≤ 11%. For the same compound, the LDH secretion (SH-SY5Y cells [2]; beta-amyloid-induced, sulfuretin 1 μg/ml) was ≤ 11%, the LDH secretion (SH-SY5Y cells [2]; beta-amyloid-induced, sulfuretin 5 μg/ml) was ≤ 9% and the LDH secretion (SH-SY5Y cells [2]; hydrogen peroxide-induced, sulfuretin 0.1 μg/ml) was ≤ 77%. The LDH secretion (SH-SY5Y cells [2]; hydrogen peroxide-induced, sulfuretin 0.5 μg/ml) was ≤ 56%, the LDH secretion (SH-SY5Y cells [2]; hydrogen peroxide-induced, sulfuretin 1 μg/ml) was ≤ 33% and the LDH secretion (SH-SY5Y cells [2]; hydrogen peroxide-induced, sulfuretin 5 μg/ml) was ≤ 39%. The viability at 0.1 µg/mL (SH-SY5Y cells [3]; [4]) was ≥ 87%, the viability at 0.5 µg/mL (SH-SY5Y cells [3]; [4]) was ≥ 97% and the viability at 1 µg/mL (SH-SY5Y cells [3]; [4]) was ≥ 112%. For the same compound, the viability at 5 µg/mL (SH-SY5Y cells [3]; [4]) was ≥ 140%, the viability at 0.1 µg/mL (SH-SY5Y cells [3]; [5]) was ≥ 58% and the viability at 0.5 µg/mL (SH-SY5Y cells [3]; [5]) was ≥ 64%. For the same compound, the viability at 1 µg/mL (SH-SY5Y cells [3]; [5]) was ≥ 80%, the viability at 5 µg/mL (SH-SY5Y cells [3]; [5]) was ≥ 97% and the viability at 0.1 µg/mL (SH-SY5Y cells [3]; [6]) was ≥ 74%. The viability at 0.5 µg/mL (SH-SY5Y cells [3]; [6]) was ≥ 97%, the viability at 1 µg/mL (SH-SY5Y cells [3]; [6]) was ≥ 119% and the viability at 5 µg/mL (SH-SY5Y cells [3]; [6]) was ≥ 103%. For the same compound, the phospho-p38 expression (phospho-p38; [7]) was ≤ 157%, the phospho-p38 expression (phospho-p38; [8]) was ≤ 133% and the phospho-p38 expression (phospho-p38; [9]) was ≤ 53%. The phospho-JNK expression (phospho-JNK; [7]) was ≤ 261%, the phospho-JNK expression (phospho-JNK; [8]) was ≤ 204% and the phospho-JNK expression (phospho-JNK; [9]) was ≤ 120%. For the same compound, the viability at 0.1 µg/mL (PC12 cells; PC-12, read-out: cell viability) was ≥ 52%, the viability at 0.5 µg/mL (PC12 cells; PC-12, corticosterone-induced cell death, sulfuretin 0.5 μg/ml) was ≥ 55% and the viability at 1 µg/mL (PC12 cells; PC-12, corticosterone-induced cell death, sulfuretin 1 μg/ml) was ≥ 72%. For the same compound, the viability at 5 µg/mL (PC12 cells; PC-12, corticosterone-induced cell death, sulfuretin 5 μg/ml) was ≥ 90%.
